How the values were obtained:
Test in all cases: Herbicide activity test in green house
Type in all cases: in vivo
corn [1] = details: dose 1.25 kg/ha, sprayed at 2-4 leaves, evaluated on 14th day
fat hen [2] = details: dose 1.25 kg/ha, sprayed at 2-4 leaves, evaluated on 14th day
pig weed [3] = details: dose 1.25 kg/ha, sprayed at 2-4 leaves, evaluated on 14th day
corn [4] = details: sprayed at 2-4 leaves, evaluated on 14th day
Experimental: (§1) In culture dishes white mustard, pig weed, fat hen, autumn wheat, Italian grass and corn seeds were sown. When the seeds were sprouted 10% EC and 10% WSC were prepared from the compounds to be tested, and after dilution with water 0.2% spray was prepared. 2-4 leaves plants were sprayed with this liquid so that for each compound a dose corresponding to 2.5-5-10 kg./ha active ingredient was used. On the 14th day after the treatment the extent of the injury of the plants was evaluated and expressed in %.

autumn wheat [5] = details: sprayed at 2-4 leaves, evaluated on 14th day
Experimental: as §1

fat hen [6] = details: sprayed at 2-4 leaves, evaluated on 14th day
Experimental: as §1

Italian grass [7] = details: sprayed at 2-4 leaves, evaluated on 14th day
Experimental: as §1

pig weed [8] = details: sprayed at 2-4 leaves, evaluated on 14th day
Experimental: as §1

white mustard [9] = details: sprayed at 2-4 leaves, evaluated on 14th day
Experimental: as §1

autumn wheat [10] = details: dose 1.25 kg/ha, sprayed at 2-4 leaves, evaluated on 14th day
white mustard [11] = details: dose 1.25 kg/ha, sprayed at 2-4 leaves, evaluated on 14th day
Italian grass [12] = details: dose 1.25 kg/ha, sprayed at 2-4 leaves, evaluated on 14th day

Compound	extent of the injury of the plants, corn (corn [1]) [%]	extent of the injury of the plants, fat hen (fat hen [2]) [%]	extent of the injury of the plants, pig weed (pig weed [3]) [%]	extent of the injury of the plants, corn (corn [4]; dose 2.5 kg/ha) [%]	extent of the injury of the plants, corn (corn [4]; dose 5.0 kg/ha) [%]	extent of the injury of the plants, autumn wheat (autumn wheat [5]; dose 2.5 kg/ha) [%]	extent of the injury of the plants, autumn wheat (autumn wheat [5]; dose 5.0 kg/ha) [%]	extent of the injury of the plants, fat hen (fat hen [6]; dose 2.5 kg/ha) [%]	extent of the injury of the plants, fat hen (fat hen [6]; dose 5.0 kg/ha) [%]	extent of the injury of the plants, Italian grass (Italian grass [7]; dose 2.5 kg/ha) [%]	extent of the injury of the plants, Italian grass (Italian grass [7]; dose 5.0 kg/ha) [%]	extent of the injury of the plants, pig weed (pig weed [8]; dose 2.5 kg/ha) [%]	extent of the injury of the plants, pig weed (pig weed [8]; dose 5.0 kg/ha) [%]	extent of the injury of the plants, white mustard (white mustard [9]; dose 2.5 kg/ha) [%]	extent of the injury of the plants, white mustard (white mustard [9]; dose 5.0 kg/ha) [%]	extent of the injury of the plants, autumn wheat (autumn wheat [10]) [%]	extent of the injury of the plants, white mustard (white mustard [11]) [%]	extent of the injury of the plants, Italian grass (Italian grass [12]) [%]
O=[N+]([O-])c1cc([N+](=O)[O-])c(O)c(C(F)(F)F)c1 [2-trifluoromethyl-4,6-dinitro-phenol, 2-Trifluoromethyl-4,6-dinitro-phenol]	0	75	50	5	15	5	10	90	100	10	30	85	100	75	95	0	45	0
O=[N+]([O-])c1cc([N+](=O)[O-])c(O)c(C(F)(F)F)c1 [2-trifluoromethyl-4,6-dinitro-phenol-K]	0	70	45	10	15	0	15	90	100	10	15	85	100	75	90	0	65	0
O=[N+]([O-])c1cc([N+](=O)[O-])c(O)c(C(F)(F)F)c1 [2-trifluoromethyl-4,6-dinitro-phenol-Na]	0	70	60	10	15	0	15	90	100	10	15	85	100	80	100	0	50	0
O=[N+]([O-])c1cc([N+](=O)[O-])c(O)c(C(F)(F)F)c1 [2-trifluoromethyl-4,6-dinitro-phenol-diethanol-amine]	0	70	50	–	10	–	10	75	80	–	10	60	85	60	80	0	40	0
CNC.O=[N+]([O-])c1cc([N+](=O)[O-])c(O)c(C(F)(F)F)c1 [2-trifluoromethyl-4,6-dinitro-phenol-dimethyl-amine]	0	70	50	0	10	0	10	75	85	0	20	65	80	55	75	0	45	0
CCC(=O)Oc1c([N+](=O)[O-])cc([N+](=O)[O-])cc1C(F)(F)F [2-trifluoromethyl-4,6-dinitro-phenol-ethyl carbonyl]	0	60	40	0	10	0	10	70	80	0	10	60	80	50	80	0	40	0
CC(=O)Oc1c([N+](=O)[O-])cc([N+](=O)[O-])cc1C(F)(F)F [2-trifluoromethyl-4,6-dinitrophenol methyl carbonyl]	0	70	50	0	10	0	10	90	100	10	20	80	95	70	90	0	40	0

Source: patent publication US4596893A (priority 1985, dated 1986)
